According to paper PMC6853232, “Discovery and evaluation of novel synthetic 5-alkyl-4-oxo-4,5-dihydro-[1,2,4]triazolo[4,3-a]quinoxaline-1-carbox-amide derivatives as anti-inflammatory agents” (Journal of Enzyme Inhibition and Medicinal Chemistry, 2019):
Values joined by “and” are separate entries in the source; they are usually repeats but may differ in a detail not shown here. Equal entries are not always repeated.

Legend:
[1] = tested on: LPS-induced NO production in RAW264.7 macrophages; test: Inhibition of LPS-induced NO production (Griess); type: cell-based, mouse
Experimental: The RAW 264.7 mouse macrophage cell line was obtained from the China Cell Line Bank (Beijing, China). Cells were cultured in complete medium (DMEM supplemented with 10% heat-inactivated FBS, 3 mM glutamine and antibiotics (100 U/mL penicillin and 100 U/mL streptomycin)) at 37 °C in a humidified incubator containing 5% CO2 and 95% air. Cells were treated with various concentrations of synthesised compounds for 30 min followed by stimulation with LPS ([…]).
Nitrite, a stable product of nitric oxide, was used to assess NO production. To study the effects of the isolated compounds on NO production, RAW264.7 cells were plated at 1 × 10^5 cells/well in a 96-well microplate and incubated overnight. The cells were pre-treated with various concentrations of the test compounds (3, 7.5, 10, 15, 30 or 100 µM) and further co-cultured with 1 µg/mL LPS for 24 h. Un-pre-treated and un-stimulated RAW 264.7 cells were conducted as the blank control group. At different time points, the supernatant (50 µL) was assayed with NO assay kit. The culture supernatant (50 µL) was mixed with an equal volume of the Griess reagent (1% sulphanilamide, 0.1% N-[1-naphthy] ethylenediamine dihydrochloride) and NO production were determined at 540 nm with an ELISAplate reader.

[2] = tested on: gastric mucosa (stomach lesions); test: Ulcerogenic effect; type: in vivo; settings: 25 mg/kg p.o. once a day for three days, rats
Experimental: The lead compound D1 and the newly synthesised compound 6p were subjected to in vivo testing to measure their ulcerogenic effect in comparison to celecoxib and ibuprofen. Male albino rats (220–250 g) divided into 5 groups (control, D1, 6p, ibuprofen and celecoxib group) of five rats each. The groups with D1, 6p, ibuprofen, and celecoxib were administered oral administration (p.o.) 25 mg/kg in a vehicle of 0.5% methylcellulose, respectively. The negative control group was treated with the same vehicle (0.5% methylcellulose). All groups were orally administered once a day for three consecutive days. Animals were sacrificed by diethyl ether 6 h after the last dose and the stomach was removed. An opening at the greater curvature was made and the stomach was cleaned by washing with cold saline and inspected with a three-time magnifying lens for any evidence of hyperaemia, haemorrhage, definite haemorrhagic erosion, or ulcer. An arbitrary scale was used to calculate the ulcer index which indicates the severity of the stomach lesions The % ulceration for each group was calculated as follows: % Ulceration = Number of animals bearing ulcer in a group/Total number of animals in the same group ×100.

[3] = tested on: phosphorylation of ERK in RAW 264.7 cells; test: Western blot, LPS-induced phosphorylation of ERK; type: cell-based, mouse
Experimental: RAW 264.7 cells (5 × 10^5 cells/well) plated onto 6-well plates were incubated for 24 h and treated with 7.5, 15.0 or 30.0 µM of compound 6p for 30 min and then stimulated with […] of LPS for 24 h. The cells were collected and washed three times with ice-cold PBS. The cells were treated with a cell lysis buffer [50 mM Tris (pH 7.6), 150 mM NaCl, 5 mM EDTA (pH 8.0), 0.6% NP-40, 1 mM Na3VO4, 20 mM β-glycerophosphate, 1 mM phenylmethylsulfonyl fluoride, 2 mM p-nitrophenyl phosphate, and 1:25 Complete Mini Protease Inhibitor cocktail (Boehringer, Mannheim,Germany)] and kept on ice for 30 min. The cell lysates were centrifuged (12,000 g at 4 °C) for 5 min to obtain a cytosolic fraction. The protein concentration was determined by BCA protein assay kit (Beyotime, Haimen, China). Aliquots of the lysates were separated on 10% sodium dodecyl sulphate (SDS)-polyacrylamide gel electrophoresis (PAGE) and then electro blotted onto a polyvinylidene difluoride (PVDF) membrane. The blots were blocked with 5% (w/v) non-fat dry milk for 2 h at 37 °C, followed by incubation with specific primary antibody at 4 °C overnight. […] Blots were again washed with TTBS and the immune active proteins were detected using ECL plus (Thermo, USA). […] Results are expressed as the relative ratio of the specific band compared with the internal reference.

[4] = tested on: IL-6 production in LPS-stimulated RAW264.7 cells; test: Cytokine production assay (ELISA), IL-6; type: cell-based, mouse
Experimental: RAW264.7 cells were seeded at 3 × 10^5 cells/well in a 48-well microplate and incubated overnight.The cells were pre-treated with the different concentrations of the test compunds (3, 7.5, 10 or 30 µM) for 30 min before the stimulation with LPS (1 µg/mL). According to the protocol of the manufacturer, supernatants were harvested at the 24th hour for the assay of TNF-α or IL-6 with ELISA kits (BD Biosciences, San Diego, CA, USA). Briefly, 100 µL of biotinylated antibody reagent and the culture supernatants were added to anti-mouse TNF-α or IL-6 precoated 96-well plates, and the plates were incubated for 2 h at RT. The plate was washed with a washing buffer and subsequently incubated with 100 µL of the streptavidin-HRP solution for 1 h at RT. The plate was washed, and incubated with 100 µL of TMB substrate solution for 30 min at RT in the dark. The reaction was stopped by adding 50 µL of stop solution, and then the absorbance was measured at 450 nm by a plate reader. A standard curve was produced for each assay plate using serially diluted recombinant IL-6.

[5] = tested on: carrageenan-induced paw oedema; test: Carrageenan-induced paw oedema model; type: in vivo, rats; settings: 25 mg/kg p.o., n = 4
Text: The animal procedures were in strict accordance with the National Institutes of Healthy Guidelines for the Care and Use of Laboratory Animals (NIH Publication No. 85-23, revised 1996) and were approved by the Institutional Animal Care and Utilisation Committee of Yanbian University. Male albino rats weighing 280–300 gwere obtained from Animal Department of Yanbian University . They were kept in the animal house under standard condition of light and temperature with free access to food and water. The animals were randomly divided into five groups (control, D1, 6p, ibuprofen and celecoxib group) The groups with D1, 6p, ibuprofen and celecoxib were administered oral administration (p.o.) 25 mg/kg in a vehicle of 0.5% methylcellulose, respectively. The negative control group was treated with the same vehicle (0.5% methylcellulose). A solution of carrageenan (0.1 ml, 1.0% w/v in 0.9% of normal saline) was injected into the subplanter region of the left hind paw under light ether anaesthesia 1 h after oral administration (p.o.) of the test compound (at a dose level of 25 mg/kg body weight). The paw volume was measured at hourly interval for 5 h (0, 1, 3 and 5 h) and the percent inhibition of oedema was calculated using formula: %Inhibition=(Vt−Vo)control−(Vt−Vo)tested compound /(Vt−Vo)control×100 where, • Vo = volume of oedema at zero time interval. • Vt = volume of oedema at specific time interval.

In the case of COc1cc(Cn2c(=O)c3nnc(C(N)=O)n3c3ccccc32)cc(OC)c1OC [6p, 5-(3,4,5-trimethoxybenzyl)-4-oxo-4,5-dihydro-[1,2, 4]triazolo[4,3-a]quinoxaline-1-carboxamide], the “inhibition of NO production” value ([1]; 3 µM, p < .001 vs LPS alone) is reported as “significantly inhibit”, the inhibition at 10 µM ([1]; Mus musculus, RAW264.7, 10 µM, LPS 1 µg/mL, 24 h, read-out: NO inhibitory activity (% inhibition)) is reported as 38.8% and the “% ulceration” value [2] is reported as 20%. For the same molecule, the “phosphorylation of ERK” value ([3]; 30 µM, p < .001) was “markedly diminished”, the “LPS-induced phosphorylation of ERK, concentration dependence” value ([3]; 7.5, 15 and 30 µM) was “concentration-dependent manner” and the “production of IL-6” value ([4]; 3 µM, p < .001) was “significantly inhibited”. The “LPS-induced increase in IL-6 levels” value ([4]; LPS 1 µg/mL, 24 h, different concentrations) was “inhibited in a concentration-dependent manner”, the “% of oedema inhibition (% mean ± SD)” value ([5]; 1 h) was 37.01 ± 8.45% and the “% of oedema inhibition (% mean ± SD)” value ([5]; 3 h, 25 mg/kg) was 50.83% and 50.83 ± 3.47%. The “% of oedema inhibition (% mean ± SD)” value ([5]; 5 h) was 38.24 ± 6.04%.
